According to ChEMBL document CHEMBL1201862, “PubChem BioAssay data set” (2004):
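A five-concentration, 48-hour dose response in 96-well plates underlies each endpoint, interpolated linearly between surrounding concentrations. At the GI50, growth is halved.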 Calls of active or inactive are those of the source. Rule as the data show it: active = GI50 up to about 1.1 µM and inactive = higher.

Tests used:
Test in all cases: inhibition of tumour cell growth, NCI panel, 48 h
[1] = system: HCT-116
[2] = system: U-251
[3] = system: SNB-75
[4] = system: RPMI-8226
[5] = system: SNB-19
[6] = system: UO-31
[7] = system: HT-29
[8] = system: CCRF-CEM
[9] = system: LOX IMVI
[10] = system: SN12C
[11] = system: UACC-257
[12] = system: A549
[13] = system: MOLT-4
[14] = system: OVCAR-8
[15] = system: LXFL 529
[16] = system: MDA-N
[17] = system: NCI/ADR-RES
[18] = system: BT-549
[19] = system: T47D
[20] = system: MDA-MB-231

Measured: GI50

O/N=C(\c1nc2ccc(Cl)cc2nc1O)C(O)c1ccc(Cl)cc1Cl (stereo not given)
inactive: [1] > 100 µM | [2] > 100 µM | [3] > 100 µM | [4] > 100 µM | [5] > 100 µM | [6] > 100 µM | [7] > 100 µM | [8] > 100 µM | [9] > 100 µM | [10] > 100 µM | [11] > 100 µM | [12] > 100 µM | [13] > 100 µM | [14] > 100 µM | [15] > 100 µM

O=C(O)c1ccc([N+](=O)[O-])c2c(=O)c3ccccc3[nH]c12
inactive: [1] > 100 µM | [2] > 100 µM | [3] 99.5 µM | [4] > 100 µM | [5] > 100 µM | [6] > 100 µM | [7] > 100 µM | [8] > 100 µM | [9] > 100 µM | [10] > 100 µM | [11] > 100 µM | [12] > 100 µM | [13] > 100 µM | [14] > 100 µM | [15] > 100 µM

O=C(Nc1nc2ccc([N+](=O)[O-])cc2s1)C(=O)C(C1OC(=O)c2ccccc21)[N+](=O)[O-] (stereo not given)
inactive: [1] 97.5 µM | [2] 82.8 µM | [3] 35.6 µM | [4] 56.2 µM | [5] 58.6 µM | [6] 20.3 µM | [7] > 100 µM | [8] 63.2 µM | [9] > 100 µM | [10] 75 µM | [11] > 100 µM | [12] > 100 µM | [13] 88.5 µM | [14] > 100 µM | [15] 85.1 µM

CC(C(=O)[O-])S(=O)(=O)O.CCc1c2cc(OC)c(OC)cc2cc2c3cc(OC)c(OC)cc3cc[n+]12
inactive: [1] 17.8 µM | [16] 9.89 µM | [2] 6.27 µM | [3] 7.94 µM | [4] 25.8 µM | [17] 38.1 µM | [5] 3.94 µM | [6] 53.7 µM | [7] 45.2 µM | [8] 9.14 µM | [9] 27.5 µM | [18] 3.81 µM | [19] 5.11 µM | [10] 6.62 µM | [11] 13.3 µM | [12] 47.4 µM | [13] 20.4 µM | [20] 20.1 µM | [14] 20 µM | [15] 5.09 µM

Cc1ccc(NC(=O)CCc2nnc3s/c(=C\c4cccc([N+](=O)[O-])c4)c(=O)n23)cc1
inactive: [1] > 100 µM | [2] 47.9 µM | [3] 40.6 µM | [4] > 100 µM | [5] 84.5 µM | [6] > 100 µM | [7] > 100 µM | [8] 66.1 µM | [9] 48.8 µM | [10] > 100 µM | [11] > 100 µM | [12] > 100 µM | [13] > 100 µM | [14] > 100 µM | [15] > 100 µM
